Our source for the IC50, arthritis score and edema rate values is US12239643B2, “Therapeutic agent for inflammatory diseases, autoimmune diseases, fibrotic diseases, and cancer diseases” (MEIJI SEIKA PHARMA CO., LTD., priority 2018, dated 2025).

In one assay the test system is IL-17A. Nature of the assay: Cytokine suppression using whole human blood: IL-17A (phytohaemagglutinin stimulus). The assay is classed as cell-based. The conditions noted are these: read-out: IL-17A Inhibitory Activity, Human Whole Blood (Test Example 3). The procedure: The test compound dissolved in dimethyl sulfoxide was added to a 96-well plate, and RPMI-1640 medium and human peripheral blood containing sodium heparin were added, followed by culture at 37° C. under 5% CO2 for 1 hour. A medium containing only dimethyl sulfoxide instead of the test compound was added to the control well. […]
After collecting the culture supernatant after culturing, the amount of each cytokine was measured by the sandwich ELISA method. […]
The measurement results obtained by measuring the TNFα inhibitory activity and IL-5 inhibitory activity (50% inhibitory concentration) of the test compounds by the above method were evaluated in accordance with the following evaluated basis; A: less than 100 nM, B: 100 nM or more and less than 500 nM, and C: 500 nM or more. In addition, the measurement results obtained by measuring the IL-17A inhibitory activity and IL-4 inhibitory activity (50% inhibitory concentration) of the test compounds were evaluated in accordance with the following evaluated basis; A: less than 500 nM, B: 500 nM or more and less than 5000 nM, and C: 5000 nM or more.

In assay [1] the test system is CEM-C1 (blood cancer (leukemia)). Description: Antitumor activity: growth inhibition of CEM-C1. The assay is classed as cell-based. The conditions noted are these: 120 h; CEM-C1, culturing for 5 days; read-out: 50% growth inhibitory concentration. As to the method: (§1) As antitumor activity, 50% growth inhibitory concentration of various cancer cells (CEM-C1 (blood cancer (leukemia)), SU-DHL-4 (blood cancer (lymphoma)), A549 (lung cancer), HCT-116 (colorectal cancer), and Daoy (brain tumor)) was calculated as follows. First, each of the above cancer cells was seeded on a 384-well plate and cultured overnight at 37° C. under 5% CO2. After that, the test compound was added at various concentrations on the next day, and each number of cells was measured after culturing for 5 days. The 50% growth inhibitory concentration was defined as the test compound concentration at which the number of cells measured is an intermediate value between the number of cells after culture for 5 days under the same conditions without the addition of the test compound and the number of cells at the time of seeding (before the start of culture). The measurement results obtained by measuring the 50% growth inhibitory concentration of the test compound by the above method were evaluated in accordance with the following evaluated basis; A: less than 10 μM, B: 10 μM or more and less than 50 μM, and C: 50 μM or more. As a result of using apremilast as the test compound, the evaluation was C in all cancer cells. On the other hand, as a result of using the compound obtained in Example 248 as the test compound, the evaluation was A in all cancer cells.

In assay [2] the test system is SU-DHL-4 (blood cancer (lymphoma)). Description: Antitumor activity: growth inhibition of SU-DHL-4. The assay is classed as cell-based. The conditions noted are these: Homo sapiens, 120 h; SU-DHL-4, culturing for 5 days; read-out: 50% growth inhibitory concentration. As to the method:
as §1

The test system of assay [3] is type II collagen-induced arthritis, DBA-1 JNCrlj mice. Nature of the assay: Mouse CIA (arthritis) model. The assay is classed as in vivo. The conditions noted are these: oral, day 31 after the initial sensitization of type II collagen. The procedure: Evaluation was carried out using male DBA-1 JNCrlj mice (6 to 8 weeks of age). First, 150 μg/0.1 mL of type II collagen (bovine)/ACF emulsion was intradermally administered to the mouse ridge to cause primary sensitization. Twenty-one days later, 100 μg/0.1 mL of type II collagen (bovine)/AIF emulsion was similarly intradermally administered to the ridge to cause secondary sensitization. Note that, in the blank group, saline was intradermally administered to the ridge at the first sensitization and second sensitization. Next, for 10 days from the day of secondary sensitization, 0.1 to 20 mg/kg of the test compound dissolved or suspended in 0.5% w/v methylcellulose (0.5% MC) was orally administered once or twice a day.
The arthritis score of each limb was judged to be 0 to 4 by visual inspection and palpation (0: no symptoms, 1: one finger is red and swollen, 2: two or more fingers or in step is red and swollen, 3: fingers, in step, and heel are red and swollen, 4: movement of joints throughout the limb is poor), and the total of the limbs was used as the individual score, and the average score of the individual group administered with each test compound was calculated and used as the arthritis score. In addition, the foot volume (mL) of the left and right hind limbs was measured using a foot volume measuring device, and the edema rate was calculated by the following formula. Edema Rate (%)={(Left and Right Added Footpad Volume After Sensitization−Left and Right Added Footpad Volume Before Sensitization)/Left and Right Added Footpad Volume Before Sensitization}×100
The arthritis score of each test compound on day 31 after the initial sensitization of type II collagen was evaluated by the above method in accordance with the following evaluated basis; A: less than 2, B: 2 or more and less than 3, and C: 3 or more. In addition, the edema rate of each test compound on day 31 after the initial sensitization of type II collagen was evaluated in accordance with the following evaluated basis; A: less than 10%, B: 10% or more and less than 20%, and C: 20% or more. As a result of using apremilast as the test compound, the arthritis score and the edema rate were both evaluated as B. On the other hand, as a result of using the compound obtained in Example 248 as the test compound, the arthritis score and the edema rate were both evaluated as A.

In the case of `CC(C)(O)C(F)(F)Oc1ccc(-c2nccs2)c2oc(N3CC4CC(C3)N4)nc12` [Example 248, 1-((2-(3,6-Diazabicyclo[3.1.1]heptan-3-yl)-7-(thiazol-2-yl)benzo[d]oxazol-4-yl)oxy)-1,1-difluoro-2-methylpropan-2-ol], the IC50 in the assay on IL-17A was less than 0.5 µM; in assay [1], less than 10 µM; in assay [2], less than 10 µM. The arthritis score result in assay [3] is “A (A: less than 2)”. For the same compound, the edema rate entry in assay [3] is listed as “A (A: less than 10%)”.

On to `CCOc1cc([C@@H](CS(C)(=O)=O)N2C(=O)c3cccc(NC(C)=O)c3C2=O)ccc1OC` [apremilast, reference compound], for which the IC50 with IL-17A is not below 5 µM; in assay [1], not below 50 µM; in assay [2], not below 50 µM. Also, in assay [3], the arthritis score result is “B (B: 2 or more and less than 3)”. In assay [3], the edema rate result is “B (B: 10% or more and less than 20%)”.
